What follows are compounds tested on HDQ-P1 (assay: normalised response (% of control), CellTiter-Glo; higher = more viable cells (100 = DMSO, 0 = benzethonium chloride kill control)). Conditions: incubation time: 72 h.
In short: (§1)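 Plates were normalised with 0.1 % DMSO as 100 and a positive kill control as 0. Breast cancer cell lines in 20 µl suspension had been seeded into 384-well plates with compound at 5 concentrations in 10-fold steps over a compound-specific 10,000-fold range, incubated 72 h, and read for CellTox Green fluorescence (485/520 nm) followed by CellTiter-Glo luminescence. Each value is the normalised signal at a single concentration.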

SMILES	normalised response
CC(C)(C)c1cnc(CSc2cnc(NC(=O)C3CCNCC3)s2)o1 [SNS-032] (100 nM)	44.2%
Cn1cnc2c(F)c(Nc3ccc(Br)cc3Cl)c(C(=O)NOCCO)cc21 [Selumetinib] (100 nM)	70.6%

What follows are compounds tested on DU-4475 (assay: normalised response (% of control), CellTox Green; higher = less cell death (100 = DMSO, 0 = benzethonium chloride kill control)). Conditions: incubation time: 72 h.
In short: as §1

SMILES	normalised response
Cc1ccc([N+](=O)[O-])cc1S(=O)(=O)N(C)/N=C/c1cnc2ccc(Br)cn12 [PIK-75] (100 nM)	71.8%
CC(C)(C)c1cnc(CSc2cnc(NC(=O)C3CCNCC3)s2)o1 [SNS-032] (100 nM)	95.2%
Cn1cnc2c(F)c(Nc3ccc(Br)cc3Cl)c(C(=O)NOCCO)cc21 [Selumetinib] (100 nM)	92.2%

Each compound was assayed on CAL-120 in the same assay as above. Conditions: incubation time: 72 h.
In short: as §1

SMILES	normalised response
Cc1ccc([N+](=O)[O-])cc1S(=O)(=O)N(C)/N=C/c1cnc2ccc(Br)cn12 [PIK-75] (100 nM)	85.3%
CC(C)(C)c1cnc(CSc2cnc(NC(=O)C3CCNCC3)s2)o1 [SNS-032] (100 nM)	90.5%
Cn1cnc2c(F)c(Nc3ccc(Br)cc3Cl)c(C(=O)NOCCO)cc21 [Selumetinib] (100 nM)	95.8%

What follows are compounds tested on MFM-223 in the same assay as above. Conditions: incubation time: 72 h.
In short: as §1

SMILES	normalised response
Cc1ccc([N+](=O)[O-])cc1S(=O)(=O)N(C)/N=C/c1cnc2ccc(Br)cn12 [PIK-75] (100 nM)	84%
CC(C)(C)c1cnc(CSc2cnc(NC(=O)C3CCNCC3)s2)o1 [SNS-032] (100 nM)	91.5%
Cn1cnc2c(F)c(Nc3ccc(Br)cc3Cl)c(C(=O)NOCCO)cc21 [Selumetinib] (100 nM)	94.9%

Each compound was assayed on HCC1143 in the same assay as above. Conditions: incubation time: 72 h.
In short: as §1

SMILES	normalised response
Cc1ccc([N+](=O)[O-])cc1S(=O)(=O)N(C)/N=C/c1cnc2ccc(Br)cn12 [PIK-75] (100 nM)	89.3%
CC(C)(C)c1cnc(CSc2cnc(NC(=O)C3CCNCC3)s2)o1 [SNS-032] (100 nM)	85%
Cn1cnc2c(F)c(Nc3ccc(Br)cc3Cl)c(C(=O)NOCCO)cc21 [Selumetinib] (100 nM)	86.3%

Each compound was assayed on HCC1937 in the same assay as above. Conditions: incubation time: 72 h.
In short: as §1

SMILES	normalised response
Cc1ccc([N+](=O)[O-])cc1S(=O)(=O)N(C)/N=C/c1cnc2ccc(Br)cn12 [PIK-75] (100 nM)	78.6%
CC(C)(C)c1cnc(CSc2cnc(NC(=O)C3CCNCC3)s2)o1 [SNS-032] (100 nM)	53.3%
Cn1cnc2c(F)c(Nc3ccc(Br)cc3Cl)c(C(=O)NOCCO)cc21 [Selumetinib] (100 nM)	100%

Each compound was assayed on MDA-MB-468 in the same assay as above. Conditions: incubation time: 72 h.
In short: as §1

SMILES	normalised response
Cc1ccc([N+](=O)[O-])cc1S(=O)(=O)N(C)/N=C/c1cnc2ccc(Br)cn12 [PIK-75] (100 nM)	84.6%
CC(C)(C)c1cnc(CSc2cnc(NC(=O)C3CCNCC3)s2)o1 [SNS-032] (100 nM)	94.5%
Cn1cnc2c(F)c(Nc3ccc(Br)cc3Cl)c(C(=O)NOCCO)cc21 [Selumetinib] (100 nM)	75.3%

These compounds were tested on BT-474 in the same assay as above. Conditions: incubation time: 72 h.
In short: as §1

SMILES	normalised response
Cc1ccc([N+](=O)[O-])cc1S(=O)(=O)N(C)/N=C/c1cnc2ccc(Br)cn12 [PIK-75] (100 nM)	78.3%
CC(C)(C)c1cnc(CSc2cnc(NC(=O)C3CCNCC3)s2)o1 [SNS-032] (100 nM)	86.4%
Cn1cnc2c(F)c(Nc3ccc(Br)cc3Cl)c(C(=O)NOCCO)cc21 [Selumetinib] (100 nM)	96.5%

What follows are compounds tested on MDA-MB-231 in the same assay as above. Conditions: incubation time: 72 h.
In short: as §1

SMILES	normalised response
Cc1ccc([N+](=O)[O-])cc1S(=O)(=O)N(C)/N=C/c1cnc2ccc(Br)cn12 [PIK-75] (100 nM)	-1.87%
CC(C)(C)c1cnc(CSc2cnc(NC(=O)C3CCNCC3)s2)o1 [SNS-032] (100 nM)	4.71%
Cn1cnc2c(F)c(Nc3ccc(Br)cc3Cl)c(C(=O)NOCCO)cc21 [Selumetinib] (100 nM)	77.1%

The compounds below were run on CAL-51 in the same assay as above. Conditions: incubation time: 72 h.
In short: as §1

SMILES	normalised response
Cc1ccc([N+](=O)[O-])cc1S(=O)(=O)N(C)/N=C/c1cnc2ccc(Br)cn12 [PIK-75] (100 nM)	7.25%
CC(C)(C)c1cnc(CSc2cnc(NC(=O)C3CCNCC3)s2)o1 [SNS-032] (100 nM)	39.7%
Cn1cnc2c(F)c(Nc3ccc(Br)cc3Cl)c(C(=O)NOCCO)cc21 [Selumetinib] (100 nM)	98.7%

These compounds were tested on BT-549 in the same assay as above. Conditions: incubation time: 72 h.
In short: as §1

SMILES	normalised response
Cc1ccc([N+](=O)[O-])cc1S(=O)(=O)N(C)/N=C/c1cnc2ccc(Br)cn12 [PIK-75] (100 nM)	65.2%
CC(C)(C)c1cnc(CSc2cnc(NC(=O)C3CCNCC3)s2)o1 [SNS-032] (100 nM)	88.6%
Cn1cnc2c(F)c(Nc3ccc(Br)cc3Cl)c(C(=O)NOCCO)cc21 [Selumetinib] (100 nM)	104%

These compounds were tested on MCF-10A in the same assay as above. Conditions: incubation time: 72 h.
In short: as §1

SMILES	normalised response
Cc1ccc([N+](=O)[O-])cc1S(=O)(=O)N(C)/N=C/c1cnc2ccc(Br)cn12 [PIK-75] (100 nM)	17.8%
CC(C)(C)c1cnc(CSc2cnc(NC(=O)C3CCNCC3)s2)o1 [SNS-032] (100 nM)	84.7%
Cn1cnc2c(F)c(Nc3ccc(Br)cc3Cl)c(C(=O)NOCCO)cc21 [Selumetinib] (100 nM)	94.8%

Each compound was assayed on HCC1599 in the same assay as above. Conditions: incubation time: 72 h.
In short: as §1

SMILES	normalised response
Cc1ccc([N+](=O)[O-])cc1S(=O)(=O)N(C)/N=C/c1cnc2ccc(Br)cn12 [PIK-75] (100 nM)	79.3%
CC(C)(C)c1cnc(CSc2cnc(NC(=O)C3CCNCC3)s2)o1 [SNS-032] (100 nM)	88.5%
Cn1cnc2c(F)c(Nc3ccc(Br)cc3Cl)c(C(=O)NOCCO)cc21 [Selumetinib] (100 nM)	89.2%

These compounds were tested on MDA-MB-436 in the same assay as above. Conditions: incubation time: 72 h.
In short: as §1

SMILES	normalised response
Cc1ccc([N+](=O)[O-])cc1S(=O)(=O)N(C)/N=C/c1cnc2ccc(Br)cn12 [PIK-75] (100 nM)	50.7%
CC(C)(C)c1cnc(CSc2cnc(NC(=O)C3CCNCC3)s2)o1 [SNS-032] (100 nM)	59.7%
Cn1cnc2c(F)c(Nc3ccc(Br)cc3Cl)c(C(=O)NOCCO)cc21 [Selumetinib] (100 nM)	77.2%

The compounds below were run on MDA-MB-453 in the same assay as above. Conditions: incubation time: 72 h.
In short: as §1

SMILES	normalised response
Cc1ccc([N+](=O)[O-])cc1S(=O)(=O)N(C)/N=C/c1cnc2ccc(Br)cn12 [PIK-75] (100 nM)	101%
CC(C)(C)c1cnc(CSc2cnc(NC(=O)C3CCNCC3)s2)o1 [SNS-032] (100 nM)	94.9%
Cn1cnc2c(F)c(Nc3ccc(Br)cc3Cl)c(C(=O)NOCCO)cc21 [Selumetinib] (100 nM)	101%

What follows are compounds tested on Hs578T in the same assay as above. Conditions: incubation time: 72 h.
In short: as §1

SMILES	normalised response
Cc1ccc([N+](=O)[O-])cc1S(=O)(=O)N(C)/N=C/c1cnc2ccc(Br)cn12 [PIK-75] (100 nM)	17.7%
CC(C)(C)c1cnc(CSc2cnc(NC(=O)C3CCNCC3)s2)o1 [SNS-032] (100 nM)	60.3%
Cn1cnc2c(F)c(Nc3ccc(Br)cc3Cl)c(C(=O)NOCCO)cc21 [Selumetinib] (100 nM)	102%

These compounds were tested on CAL-148 in the same assay as above. Conditions: incubation time: 72 h.
In short: as §1

SMILES	normalised response
Cc1ccc([N+](=O)[O-])cc1S(=O)(=O)N(C)/N=C/c1cnc2ccc(Br)cn12 [PIK-75] (100 nM)	36.5%
CC(C)(C)c1cnc(CSc2cnc(NC(=O)C3CCNCC3)s2)o1 [SNS-032] (100 nM)	-22.6%
Cn1cnc2c(F)c(Nc3ccc(Br)cc3Cl)c(C(=O)NOCCO)cc21 [Selumetinib] (100 nM)	90.4%

Each compound was assayed on CAL-85-1 in the same assay as above. Conditions: incubation time: 72 h.
In short: as §1

SMILES	normalised response
Cc1ccc([N+](=O)[O-])cc1S(=O)(=O)N(C)/N=C/c1cnc2ccc(Br)cn12 [PIK-75] (100 nM)	22%
CC(C)(C)c1cnc(CSc2cnc(NC(=O)C3CCNCC3)s2)o1 [SNS-032] (100 nM)	35.7%
Cn1cnc2c(F)c(Nc3ccc(Br)cc3Cl)c(C(=O)NOCCO)cc21 [Selumetinib] (100 nM)	94.9%

The compounds below were run on HDQ-P1 in the same assay as above. Conditions: incubation time: 72 h.
In short: as §1

SMILES	normalised response
Cc1ccc([N+](=O)[O-])cc1S(=O)(=O)N(C)/N=C/c1cnc2ccc(Br)cn12 [PIK-75] (100 nM)	77.6%
CC(C)(C)c1cnc(CSc2cnc(NC(=O)C3CCNCC3)s2)o1 [SNS-032] (100 nM)	57.6%
Cn1cnc2c(F)c(Nc3ccc(Br)cc3Cl)c(C(=O)NOCCO)cc21 [Selumetinib] (100 nM)	97.9%

Source: the supplement of paper PMC4862054
